Measured values published in the NIST ThermoML archive (doi:10.1021/je0400052).

Assays:
[1] = refractive index (Na D-line) (dimensionless); details: 101.33 kPa, Liquid
[2] = 101.33 kPa, Liquid
[3] = xn = mol fraction of the nth substance listed; details: 101.3 kPa, Liquid
[4] = refractive index (Na D-line) (dimensionless); xn = mol fraction of the nth substance listed; details: 101.3 kPa, Liquid

Cc1cccc(C)c1 [1,3-dimethylbenzene]
Details | mass density, [2] [kg/m3] | refractive index, [1] | viscosity, [2] [mPa·s]
303.15 K | 855.3 | 1.492 | 0.557
313.15 K | 847.1 | 1.4901 | 0.508

CCOC(=O)c1ccccc1 [ethyl benzoate] + Cc1cccc(C)c1
Details | mass density, [3] [kg/m3] | refractive index, [4] | viscosity, [3] [mPa·s]
303.15 K, x1 = 0.0887 | 871.6 | 1.4946 | 0.612
303.15 K, x1 = 0.1713 | 887.2 | 1.4957 | 0.676
303.15 K, x1 = 0.2626 | 905.2 | 1.4964 | 0.759
303.15 K, x1 = 0.3553 | 926 | 1.497 | 0.837
303.15 K, x1 = 0.4588 | 946.8 | 1.4974 | 0.931
303.15 K, x1 = 0.5707 | 966.5 | 1.499 | 1.055
303.15 K, x1 = 0.6576 | 981.7 | 1.4995 | 1.161
303.15 K, x1 = 0.7831 | 1002.2 | 1.5003 | 1.352
303.15 K, x1 = 0.8832 | 1018.5 | 1.5011 | 1.5
313.15 K, x1 = 0.0887 | 857.3 | 1.4917 | 0.547
313.15 K, x1 = 0.1713 | 875 | 1.4925 | 0.601
313.15 K, x1 = 0.2626 | 895.5 | 1.4939 | 0.664
313.15 K, x1 = 0.3553 | 917.5 | 1.4955 | 0.732
313.15 K, x1 = 0.4588 | 937.2 | 1.4963 | 0.809
313.15 K, x1 = 0.5707 | 966.5 | 1.4979 | 0.91
313.15 K, x1 = 0.6576 | 971.7 | 1.4984 | 0.997
313.15 K, x1 = 0.7831 | 993.7 | 1.4988 | 1.146
313.15 K, x1 = 0.8832 | 1009.8 | 1.4993 | 1.274

CCOC=O [ethyl methanoate] + Cc1ccccc1C
Details | mass density, [3] [kg/m3] | refractive index, [4] | viscosity, [3] [mPa·s]
303.15 K, x1 = 0.1467 | 872.7 | 1.4906 | 0.63
303.15 K, x1 = 0.2667 | 877.4 | 1.4873 | 0.586
303.15 K, x1 = 0.3779 | 880 | 1.4786 | 0.544
303.15 K, x1 = 0.4984 | 882.6 | 1.4721 | 0.502
303.15 K, x1 = 0.5936 | 886.9 | 1.4631 | 0.471
303.15 K, x1 = 0.694 | 891.2 | 1.4347 | 0.444
303.15 K, x1 = 0.7791 | 896.7 | 1.4072 | 0.42
303.15 K, x1 = 0.8563 | 901.2 | 1.3981 | 0.4
303.15 K, x1 = 0.9337 | 903.7 | 1.3729 | 0.378
313.15 K, x1 = 0.1467 | 864.6 | 1.4896 | 0.558
313.15 K, x1 = 0.2667 | 868.5 | 1.4819 | 0.521
313.15 K, x1 = 0.3779 | 871.9 | 1.4735 | 0.487
313.15 K, x1 = 0.4984 | 873.7 | 1.4671 | 0.452
313.15 K, x1 = 0.5936 | 876.9 | 1.4612 | 0.43
313.15 K, x1 = 0.694 | 881.6 | 1.4216 | 0.402
313.15 K, x1 = 0.7791 | 885.9 | 1.4061 | 0.382
313.15 K, x1 = 0.8563 | 889.6 | 1.3969 | 0.366
313.15 K, x1 = 0.9337 | 891.1 | 1.3701 | 0.359

CCc1ccccc1 [ethylbenzene]
Details | mass density, [2] [kg/m3] | refractive index, [1] | viscosity, [2] [mPa·s]
303.15 K | 857.6 | 1.491 | 0.597
313.15 K | 849.2 | 1.4891 | 0.538

CCOC(=O)c1ccccc1 [ethyl benzoate] + CCc1ccccc1
Details | mass density, [3] [kg/m3] | refractive index, [4] | viscosity, [3] [mPa·s]
303.15 K, x1 = 0.0862 | 875.1 | 1.492 | 0.643
303.15 K, x1 = 0.1804 | 892.6 | 1.4932 | 0.711
303.15 K, x1 = 0.2589 | 910.2 | 1.4934 | 0.767
303.15 K, x1 = 0.3522 | 927.2 | 1.4942 | 0.857
303.15 K, x1 = 0.472 | 950.1 | 1.496 | 0.97
303.15 K, x1 = 0.5625 | 967 | 1.4968 | 1.071
303.15 K, x1 = 0.6722 | 984.9 | 1.4971 | 1.206
303.15 K, x1 = 0.7675 | 1002 | 1.4992 | 1.33
303.15 K, x1 = 0.8678 | 1019 | 1.4998 | 1.496
303.15 K, x1 = 0.9325 | 1040.9 | 1.5003 | 1.615
313.15 K, x1 = 0.0862 | 867 | 1.4911 | 0.57
313.15 K, x1 = 0.1804 | 884.3 | 1.4921 | 0.629
313.15 K, x1 = 0.2589 | 901.3 | 1.493 | 0.682
313.15 K, x1 = 0.3522 | 918.1 | 1.4937 | 0.745
313.15 K, x1 = 0.472 | 941.4 | 1.4954 | 0.844
313.15 K, x1 = 0.5625 | 960.4 | 1.4959 | 0.937
313.15 K, x1 = 0.6722 | 976.2 | 1.4963 | 1.063
313.15 K, x1 = 0.7675 | 993 | 1.4981 | 1.169
313.15 K, x1 = 0.8678 | 1009.7 | 1.4992 | 1.268
313.15 K, x1 = 0.9325 | 1027.4 | 1.4996 | 1.335

CCOC=O [ethyl methanoate] + Cc1cccc(C)c1
Details | mass density, [3] [kg/m3] | refractive index, [4] | viscosity, [3] [mPa·s]
303.15 K, x1 = 0.1348 | 858.3 | 1.4892 | 0.524
303.15 K, x1 = 0.2728 | 863.3 | 1.4695 | 0.494
303.15 K, x1 = 0.3968 | 868.7 | 1.4561 | 0.467
303.15 K, x1 = 0.4988 | 873.1 | 1.4391 | 0.449
303.15 K, x1 = 0.6032 | 877.7 | 1.4288 | 0.43
303.15 K, x1 = 0.6923 | 882.8 | 1.4265 | 0.414
303.15 K, x1 = 0.7867 | 888.4 | 1.4055 | 0.398
303.15 K, x1 = 0.8591 | 895 | 1.3875 | 0.386
303.15 K, x1 = 0.9379 | 900.1 | 1.3856 | 0.373
313.15 K, x1 = 0.1348 | 849.8 | 1.482 | 0.479
313.15 K, x1 = 0.2728 | 854.4 | 1.4679 | 0.453
313.15 K, x1 = 0.3968 | 859.5 | 1.4578 | 0.431
313.15 K, x1 = 0.4988 | 864.3 | 1.438 | 0.412
313.15 K, x1 = 0.6032 | 869.2 | 1.4276 | 0.397
313.15 K, x1 = 0.6923 | 874.3 | 1.4253 | 0.384
313.15 K, x1 = 0.7867 | 880.1 | 1.4043 | 0.369
313.15 K, x1 = 0.8591 | 884.1 | 1.385 | 0.357
313.15 K, x1 = 0.9379 | 889.7 | 1.3841 | 0.347
